Assay results as given in paper PMC9574860, “Chemical Toolkit for PARK7: Potent, Selective, and High-Throughput” (Journal of Medicinal Chemistry, 2022).
Values belong to the compound of their own block, whether it stands above or below them.

What was measured:
DUBs = test: DUB activity profiling in HEK293T cell lysate with general DUB probe Rho-Ub-PA; format: biochemical; details: compound 5 μM 1 h 37 °C, then Rho-Ub-PA 30 min, Figure S5
Description: Due to the structural similarity of PARK7 inhibitor JYQ-88 and UCHL1 inhibitor 8RK64 and the fact that many cyanimide-containing compounds have been identified as DUB inhibitors,[35],[37] we investigated the inhibitory potential of JYQ-88 and JYQ-92 toward DUBs. After treating the HEK293T cell lysate with JYQ-88 and JYQ-92, along with UCHL1 inhibitors, 6RK73 and 8RK64 as controls,[38] the remaining activity of DUBs was determined using the general DUB probe Rho-Ub-PA (Figure S5).[39]
Figure S5. Fluorescence labeling of DUBs to investigate their remaining activity by Rh-Ub-
PA after the treatment with PARK7 inhibitor JYQ-88 and probe JYQ-92. UCHL1 inhibitors,
6RK73 and 8RK64, were used as a control. HEK293T cell lysate was treated with 5 μM final
MOPS SDS running buffer (Novex, NuPAGE) and visualized by fluorescence scanning on a
Typhoon FLA 9500 (GE Healthcare Life Sciences) using a Rhodamine channel (λex/em
(1 picture or pasted object on this page, not shown here)

UCHL1 = biological target: T1, UCHL1 (Homo sapiens, UniProt P09936); test: UCHL1 activity assay (Ub-Rho-Morpholine or Ub-AMC substrate); format: biochemical; details: UCHL1 1 nM, 1 h preincubation; read-out: UbRhoMP assay UCHL1 IC50
T1 sequence (P09936 1-223): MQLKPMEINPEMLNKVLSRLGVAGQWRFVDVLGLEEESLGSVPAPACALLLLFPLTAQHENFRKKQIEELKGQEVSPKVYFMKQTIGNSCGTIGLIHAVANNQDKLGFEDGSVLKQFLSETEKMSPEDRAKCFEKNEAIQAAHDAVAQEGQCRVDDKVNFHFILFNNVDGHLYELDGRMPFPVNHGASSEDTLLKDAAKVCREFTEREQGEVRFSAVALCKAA
Description: The assay was performed in a buffer containing 50 mM Tris·HCl, 100 mM NaCl at pH 7.5, 2.0 mM cysteine, 1 mg/mL 3-[(3-cholamidopropyl)dimethylammonio]propanesulfonic acid (CHAPS), and 0.5 mg/mL bovine serum albumin and conducted in a 384-well plate (Corning 3820) with a reaction volume 20 μL in triplicate. The compounds were dissolved in DMSO as 10, 1, and 0.1 mM stock solutions and were transferred to obtain a 12-point serial dilution of 0.05 to 200 μM. Next, UCHL1 (15 μL, final concentration of 1 nM) was dispensed with a Biotek MultiFlowFX liquid dispenser and incubated for 1 h, followed by dispensing the substrate Ub-Rho-Morpholine or Ub-AMC (5 μL, final concentration of 400 nM). The FI signal was monitored with a BMG Labtech PHERAstar plate reader (λex/em 487/535 nm or λex/em 350/450 nm) for 1 h. N-Ethylmaleimide (NEM, 10 mM) was used as a positive control (100% inhibition), and DMSO was used as a negative control (0% inhibition). All samples were normalized to the positive and negative controls and plotted against the inhibitor concentrations (in μM) using the built-in equation “[inhibitor] vs response – variable slope (four parameters), least-squares fit” with constraints “Bottom = 0” and “Top = 100” in GraphPad Prism 9.0.1 software to obtain the IC50 values.

PARK7 [1] = biological target: T2, PARK7 (Homo sapiens, UniProt Q99497); test: Probe labeling of purified recombinant PARK7 (SDS-PAGE, fluorescence scanning); format: binding; parameters: GST (N, cleaved yes); made in house; host or cells: E. coli BL21(DE3) Rosetta2; details: purified PARK7 1 μM, 1 h 37 °C; Figure 4A
T2 sequence (Q99497 1-189): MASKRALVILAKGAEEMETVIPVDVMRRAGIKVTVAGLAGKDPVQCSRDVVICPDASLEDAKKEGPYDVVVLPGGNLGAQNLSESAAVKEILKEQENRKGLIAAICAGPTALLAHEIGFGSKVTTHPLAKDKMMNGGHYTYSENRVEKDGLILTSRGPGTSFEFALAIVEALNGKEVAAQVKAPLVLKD
Excerpt: PARK7 inhibitor JYQ-88 was further converted into activity-based probes by installing SulfoCy5, Rhodamine110, or BodipyFL. We took advantage of the azide moiety in JYQ-88 and conjugated alkyne versions of these dyes using the copper(I)-catalyzed azide alkyne cycloaddition (CuAAC) to obtain compounds JYQ-92, JYQ-93, and JYQ-107 (Scheme 2). We next investigated the ability of the probes to label and visualize PARK7. […] The SulfoCy5 probe JYQ-92 and Rhodamine110 probe JYQ-107 labeled PARK7 already at 1 μM, while the BodipyFL probe JYQ-93 was less efficient than the other probes as PARK7 labeling was only observed from 5 μM.
All the labeling assays were performed in Tris buffer (50 mM Tris–HCl, 150 mM NaCl, 2 mM TCEP, pH 7.5). For labeling with the 8RK59 probe, 1 μM final concentrations of UCHL1 and PARK7 were individually or together incubated with 2 μM final concentrations of 8RK59 for 30 min at 37 °C, followed by protein visualization. For labeling with JYQ-92, JYQ-93, and JYQ-107, 1 μM final concentration of PARK7 was incubated with different concentrations (0, 0.1, 0.5, 1, 2, 5, and 10 μM) of the indicated probes for 1 h at 37 °C. […] These samples were resolved by SDS-PAGE using precast Bis-Tris gels (Invitrogen, NuPAGE) with MES SDS running buffer (Novex, NuPAGE).

PARK7 [2] = biological target: T2, PARK7; test: DiFMUAc PARK7 activity assay; format: biochemical; parameters: GST (N, cleaved yes); made in house; host or cells: E. coli BL21(DE3) Rosetta2; details: PARK7 0.1 μM, 2 h preincubation, DiFMUAc 300 μM; for inhibition at 12.5 µM: 12.5 µM compound, read-out: DiFMuAc assay %Inhibiton (12.5 µM); for inhibition at 37.5 µM: 37.5 µM compound, read-out: DiFMuAc assay %Inhibiton (37.5 µM); for inhibition at 100 µM: 100 µM compound, read-out: DiFMuAc assay %Inhibiton (100 µM)
Description: Compounds were transferred using a Labcyte Echo550 acoustic dispenser to obtain a 12-point serial dilution of 0.001 to 100 μM. Next, PARK7 (15 μL, final concentration of 0.1 μM) was dispensed with a Biotek MultiFlowFX liquid dispenser and incubated for 1 h, followed by dispensing the substrate DiFMUAc (5 μL, final concentration of 300 μM). The fluorescence intensity (FI) signal was monitored with a BMG Labtech PHERAstar plate reader (λex/em 350/450 nm) for 1 h.
The validation was performed in the PBS buffer with a reaction volume of 20 μL per well in triplicate. […] Next, PARK7 (15 μL, final concentration 0.1 μM) was dispensed with a Biotek MultiFlowFX liquid dispenser and incubated for 2 h, followed by dispensing the substrate DiFMUAc (5 μL, final concentration 300 μM). The FI signal was monitored with a BMG Labtech PHERAstar plate reader (λex/em 350/450 nm) for 1 h. The increase of FI signal compared with reference controls was used to calculate the remaining enzyme activity. The inhibition percentage of these 22 compounds was plotted as a heatmap using GraphPad Prism 9.0.1 software. Color gradients indicate inhibition percentage, no inhibiton (white) and full inhibition (blue).

PARK7 [3] = biological target: T2, PARK7; test: FP assay with Rhodamine110 probe JYQ-107 (IC50 and hit validation); format: binding; parameters: GST (N, cleaved yes); made in house; host or cells: E. coli BL21(DE3) Rosetta2; details: PARK7 0.2 μM, 1 h preincubation, JYQ-107 20 nM; for inhibition at 12.5 µM: 12.5 µM compound, read-out: FP assay %Inhibiton (12.5 µM); for inhibition at 37.5 µM: 37.5 µM compound, read-out: FP assay %Inhibiton (37.5 µM); for inhibition at 100 µM: 100 µM compound, read-out: FP assay %Inhibiton (100 µM)
Description: The assay was performed using the conditions as described above with a reaction volume of 20 μL per well in triplicate. Stock solutions of JYQ-88 of 1 and 0.1 mM were prepared. […] The FP signal was monitored with a BMG Labtech PHERAstar plate reader (λex/em 480/520 nm) for 2 h.
The validation was performed using the conditions as described above with a reaction volume of 20 μL per well in triplicate. […] The FP signal was monitored with a BMG Labtech PHERAstar plate reader (λex/em 480/520 nm) for 2 h. The relative loss of FP signal compared with reference controls was used to calculate the remaining enzyme activity. Inhibition percentage of these 40 compounds was plotted as a heatmap using GraphPad Prism 9.0.1 software. Color gradients indicate inhibition percentage, no inhibiton (white) and full inhibition (blue).

PARK7 [4] = biological target: T2, PARK7; test: Gel-based competition assay in HEK293T cell lysate with probe JYQ-92; format: biochemical; parameters: GST (N, cleaved yes); made in house; host or cells: E. coli BL21(DE3) Rosetta2; details: fragment 0.1–50 μM 2 h 37 °C, then JYQ-92 1 μM 30 min, Figure 6E
Excerpt: We next assessed whether we could measure the inhibitory activity of an inhibitor against PARK7 in a cell lysate using JYQ-92 to label the remaining activity of PARK7. […] The disappearance of the labeling band is a measure for inhibition.

PARK7 [5] = biological target: T2, PARK7; test: High-throughput FP screen of covalent fragment library with JYQ-107; format: binding; parameters: GST (N, cleaved yes); made in house; host or cells: E. coli BL21(DE3) Rosetta2; details: HTS, 100 μM compound, PARK7 0.2 μM, 2 h preincubation, JYQ-107 20 nM, 1536-well
Description: The screen was conducted using the conditions as described above in 1536-well plates (Corning 3724) with a reaction volume of 8 μL per well. The compound library containing 7887 covalent fragments was purchased at Enamine Ltd. and received as 100 mM DMSO stocks in 384 well LDV Echo plates (Labcyte LP-0200). Stock solutions of 0.26 μM PARK7 and 80 nM JYQ-107 were prepared. Using a Labcyte Echo550 acoustic dispenser, 8 nL of the DMSO stock solution of the library compounds was transferred from the source plates into the empty 1536-well screening plates to obtain a 100 μM final compound concentration. Next, PARK7 (6 μL, final concentration 0.2 μM) was dispensed using a Biotek MultiflowFX liquid dispenser and incubated for 2 h, followed by dispensing the probe JYQ-107 (2 μL, final concentration 20 nM). After 2 h incubation, the FP signal was recorded on a BMG Labtech PHERAstar plate reader (λex/em 480/520 nm). The relative loss of FP signal compared with reference controls was used to calculate the remaining enzyme activity.

Compound: N#CN1CC[C@H](C(=O)Nc2ncc(N3CCOCC3)s2)C1 [6RK73, reference compound]
- Effect on remaining DUB activity (Rho-Ub-PA labeled bands) (DUBs): disappearance of the UCHL1 band

Compound: CC1=CC(C)=[N+]2C1=C(CCCCc1cn(CC(=O)N3CCc4nc(NC(=O)[C@@H]5CCN(C#N)C5)sc4C3)nn1)c1c(C)cc(C)n1[B-]2(F)F [JYQ-93]
- IC50 (UCHL1): 23 µM
- Probe concentration from which PARK7 labeling was observed (PARK7 [1]): 5 µM

Compound: CCC(C)c1ccc(NC(=O)CCl)cc1 (stereo not shown) [Z56886389]
- inhibition at 12.5 µM (PARK7 [2]): 95.8%
- inhibition at 37.5 µM (PARK7 [2]): 95.2%
- inhibition at 100 µM (PARK7 [2]): 97.1%
- inhibition at 12.5 µM (PARK7 [3]): 100%
- inhibition at 37.5 µM (PARK7 [3]): 100%
- inhibition at 100 µM (PARK7 [3]): 100%
- Ability to inhibit PARK7 in a cell lysate (PARK7 [4]): confirmed

Compound: O=C(NC1CCN(Cc2ccccc2)CC1)n1ccnc1 [Z319217184, N-(1-benzylpiperidin-4-yl)-1H-imidazole-1-carboxamide]
- Inhibition % (PARK7 [5]): 1.56%

Compound: O=C(O)c1csc(C(=O)CCl)c1 [Z763366298]
- inhibition at 12.5 µM (PARK7 [2]): 97.9%
- inhibition at 37.5 µM (PARK7 [2]): 97.6%
- inhibition at 100 µM (PARK7 [2]): 97.3%
- inhibition at 12.5 µM (PARK7 [3]): 100%
- inhibition at 37.5 µM (PARK7 [3]): 100%
- inhibition at 100 µM (PARK7 [3]): 100%
- Ability to inhibit PARK7 in a cell lysate (PARK7 [4]): confirmed

Compound: CC1(C)CN(C(=O)CC2OCCCO2)CC2(CCCC2)O1 [Z1953185127, 1-{7,7-dimethyl-6-oxa-9-azaspiro[4.5]decan-9-yl}-2-(1,3-dioxan-2-yl)ethan-1-one]
- Inhibition % (PARK7 [5]): 1.97%

Next, values leading:

- Inhibition % (PARK7 [5]): -0.36%
Compound: NCC1CCN(C(=O)C=Cc2ccc(Cl)s2)C1 (stereo not shown) [Z2242910917, 1-[3-(aminomethyl)pyrrolidin-1-yl]-3-(5-chlorothiophen-2-yl)prop-2-en-1-one]

- Inhibition % (PARK7 [5]): 1.76%
Compound: C#CC(=O)N1CCc2cc(C(=O)O)ccc21 [Z3227873366, 1-(prop-2-ynoyl)-2,3-dihydro-1H-indole-5-carboxylic acid]

- Inhibition % (PARK7 [5]): -0.97%
Compound: N#CC=Cc1cccc2cccnc12 [Z3236183481, 3-(quinolin-8-yl)prop-2-enenitrile]
